Results on 1 compound are retold here after article PMC11675283, “Anticholinesterase Activity and Bioactive Compound Profiling of Six Hop (Humulus lupulus L.) Varieties” (Foods, 2024).

This assay has as its target T1, tyrosinase from mushrooms.
T1 construct: gene PPO3; commercial native mushroom tyrosinase (Sigma-Aldrich), isoenzyme mixture
Description: colorimetric diphenolase assay, absorbance at […] nm. In kind it is biochemical. To be noted: L-DOPA substrate.

≈ marks a conversion by molar mass, not a printed value.

The term IC50 denotes the concentration that inhibits the measured activity by half. A high value points to a need for much substance. On to `O=C(O)CCCCCCCC(=O)O` [azelaic acid], for which the IC50 turned out to be 1470 µg/mL (≈ 7.81 mM).
